Here are results for one molecule from ChEMBL document CHEMBL1131057, “Peptidomimetic growth hormone secretagogues. Design considerations and therapeutic potential” (J Med Chem, 1998).

Where a SMILES comes first, the peptide text is derived from it. [ ]: non-standard residue; d: D form. d2Nal = N[C@H](Cc1ccc2ccccc2c1)C(=O)O

Data set [1] in a line: Compound was evaluated for the half-life in rats. The format is ADME, organism-based. As to conditions: rat, in vivo.
Data set [2] is described as follows: Compound was evaluated for the systemic clearance rate in rats. Format: ADME, organism-based. As to conditions: rat, in vivo; read-out: Clearance rate.
Another data set is filed under the species Rattus norvegicus. Kind of data set: compound was evaluated for GH release in the rat. The format is functional, organism-based.

Regarding `C[C@H](NC(=O)[C@@H](Cc1ccc2ccccc2c1)NC(=O)[C@@H](C)N)C(=O)N[C@@H](Cc1c[nH]c2ccccc12)C(=O)N[C@H](Cc1ccccc1)C(=O)N[C@@H](CCCCN)C(N)=O` [PRALMORELIN] (H-[dA][d2Nal]AW[dF]K-NH2), in data set [1], the half-life (usually the time needed for the level to fall by half in the phase considered) worked out at 9 min. Further, in data set [2], the clearance (commonly a measure of how efficiently the substance is removed, as volume per time) was 23 mL/min/kg. In addition, the EC50 (as a rule, the concentration giving half of the maximal effect) in the data set filed under Rattus norvegicus is 3 nM.
